Here are results for two compounds from PubChem BioAssay AID720514 (Broad Institute, 2013).

What is called AC50 is the midpoint of the concentration-response curve, whichever way the signal moves.

For this test, the system named is U2OS PGC1a acetylation, AlphaLISA, overnight. Put plainly: reduced cellular PGC1a acetyl-lysine signal – cell-based, cherry-picked samples, dose response (AID 720514).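 Further: actives lower the acetylation signal so they count as inhibitors of PGC1a acetylation.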

For `C[C@H]1CN([C@@H](C)CO)C(=O)Cc2cc(NC(=O)Nc3ccccc3)ccc2O[C@@H]1CN(C)Cc1ccccc1`, the AC50 was 21.5 µM.
With `C[C@H]1[C@@H](OS(=O)(=O)O)C[C@@H]2C[C@H]([C@@H](O)c3cc(=O)[nH]c(=O)[nH]3)NC3=NC[C@H]1N32` the figure was 3.65 µM.
